Molecules are shown by their SMILES. Read-outs that look alike come from different tables or passages of the source. A value given as a limit tells only on which side of the number the result lay.

What all share (format): cell-based
Test [1] addresses T1, ΔF508-CFTR (Homo sapiens, UniProt P13569, DEL508-508).
T1 construct: host or cells: CFBE41o-, doxycycline-inducible
The test is described as follows: CFTR cell surface levels using HRP-tagged ΔF508-CFTR expressing CFBE cells, intrinsic corrector capacity. More on the design: % Activation: concentration or dose not given beside the values. Conditions: HRP-tagged ΔF508-CFTR expressing CFBE41o- cells, compound alone (intrinsic corrector capacity), 20 hours at 33° C.; for EC50: read-out: EC50. In outline:
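Surface ΔF508-CFTR was measured as HRP chemiluminescence from an extracellular-loop-4 tag, expressed as percent activity between DMSO and a […] corrector control.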

For a further test, the target named is T2, CFTR ΔF508 (Homo sapiens, UniProt P13569, DEL508-508).
T2 construct: bronchial epithelial cells isolated from CF patients homozygous for the CFTR ΔF508 mutation; McGill University; Asterand; University of North Carolina hAEC-CF; host or cells: primary human bronchial epithelial cells from CF patients homozygous for ΔF508, differentiated at air-liquid interface
T2 sequence (P13569 with tags, fused parts or gaps DEL508-508): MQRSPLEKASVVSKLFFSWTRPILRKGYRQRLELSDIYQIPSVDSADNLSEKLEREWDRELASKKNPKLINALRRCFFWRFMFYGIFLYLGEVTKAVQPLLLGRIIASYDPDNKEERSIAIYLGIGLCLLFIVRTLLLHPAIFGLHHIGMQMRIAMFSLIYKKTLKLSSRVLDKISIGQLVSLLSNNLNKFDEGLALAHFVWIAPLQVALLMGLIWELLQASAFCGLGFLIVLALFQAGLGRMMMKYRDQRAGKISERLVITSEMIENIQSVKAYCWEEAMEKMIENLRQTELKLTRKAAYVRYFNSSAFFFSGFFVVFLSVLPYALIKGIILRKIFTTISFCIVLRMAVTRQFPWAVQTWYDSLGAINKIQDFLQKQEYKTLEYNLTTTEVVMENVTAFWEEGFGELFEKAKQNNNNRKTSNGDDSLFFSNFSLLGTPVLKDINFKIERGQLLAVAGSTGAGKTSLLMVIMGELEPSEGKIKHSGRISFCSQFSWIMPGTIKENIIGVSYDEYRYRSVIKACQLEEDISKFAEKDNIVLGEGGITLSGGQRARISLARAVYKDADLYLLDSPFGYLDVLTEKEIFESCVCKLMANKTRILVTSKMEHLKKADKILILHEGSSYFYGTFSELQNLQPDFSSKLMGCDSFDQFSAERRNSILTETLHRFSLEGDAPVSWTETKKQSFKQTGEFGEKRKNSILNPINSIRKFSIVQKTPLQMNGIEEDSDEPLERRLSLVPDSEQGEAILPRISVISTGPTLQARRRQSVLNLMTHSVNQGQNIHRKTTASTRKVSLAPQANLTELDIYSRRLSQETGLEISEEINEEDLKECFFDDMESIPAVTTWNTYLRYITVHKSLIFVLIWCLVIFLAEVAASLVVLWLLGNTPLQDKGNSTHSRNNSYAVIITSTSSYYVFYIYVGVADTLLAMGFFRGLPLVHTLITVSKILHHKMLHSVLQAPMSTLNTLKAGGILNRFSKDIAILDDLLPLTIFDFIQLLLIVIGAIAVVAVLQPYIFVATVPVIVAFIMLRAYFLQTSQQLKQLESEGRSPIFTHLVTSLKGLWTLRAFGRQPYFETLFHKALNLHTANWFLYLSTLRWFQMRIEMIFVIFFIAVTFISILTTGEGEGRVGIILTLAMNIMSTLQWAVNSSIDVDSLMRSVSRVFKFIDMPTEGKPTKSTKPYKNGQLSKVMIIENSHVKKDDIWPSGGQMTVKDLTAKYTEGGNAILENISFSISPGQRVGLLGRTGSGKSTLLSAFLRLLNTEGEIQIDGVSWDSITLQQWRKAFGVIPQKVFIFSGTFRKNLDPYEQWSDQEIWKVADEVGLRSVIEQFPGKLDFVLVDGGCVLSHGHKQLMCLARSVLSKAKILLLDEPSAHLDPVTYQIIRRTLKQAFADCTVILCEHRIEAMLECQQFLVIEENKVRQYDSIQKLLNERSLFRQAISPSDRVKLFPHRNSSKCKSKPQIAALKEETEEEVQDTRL
Briefly: Chronic TECC assay, primary bronchial epithelial cells of CF patients homozygous for CFTR ΔF508 (corrector, co-corrector and potentiator). Conditions: chronic TECC; for % Activity at 1 μM (AUC**) / % Activity at 1 μM (Ieq*): test compound at 1 μM. On the procedure: Primary Bronchial Epithelial Cells Protocol
The TECC (Tranepithelial Clamp Circuit, EP-design) assay measures the functionality of the cystic fibrosis Transmembrane Conductance regulator (CFTR) by measuring the short circuit current (Isc) generated over the basolateral and apical membrane of lung epithelial cells. In TECC the transepithelial potential PD and transepithelial resistance (Rt) are measured in an open circuit and transformed to Ieq using Ohm's law. 24 Wells can be measured simultaneously allowing a higher throughput compared to Ussing chambers.
For this purpose, bronchial epithelial cells isolated from CF patients homozygous for the CFTR ΔF508 mutation (hAEC-CF, Epithelix, Geneva, Switzerland; McGill University, Montreal, Qc; Asterand, Detroit, Mich.; University of North Carolina, Chapel Hill, N.C.) are plated on type IV collagen-coated Transwell® supports (Costar).
For electrophysiological recording of the “chronic” experiments, the human airway epithelia are mounted in the TECC heating plate for electrophysiological measurement and kept at 37° C. The epithelia are bathed in a NaCl-Ringer solution (120 mM NaCl, 25 mM NaHCO3, 1.2 mM CaCl2, 1.2 mM MgCl2, 0.8 mM KH2PO4, 0.8 mM K2HPO4, pH 7.4, 5 mM glucose) on both the basolateral and apical sides. Test compounds (corrector, co-corrector, 4-[(2R,4R)-4-({[1-(2,2-difluoro-1,3-benzodioxol-5-yl)cyclopropyl]carbonyl}amino)-7-(difluoromethoxy)-3,4-dihydro-2H-chromen-2-yl]benzoic acid, and potentiator, N-(3-carbamoyl-5,5,7,7-tetramethyl-4,7-dihydro-5H-thieno[2,3-c]pyran-2-yl)-1H-pyrazole-5-carboxamide), are re-added to the recording solution prior to measurement. […] Apical amiloride is used to inhibit the endogenous ENaC currents while forskolin is applied on both apical and basolateral side to stimulate CFTR. Measurements are done during a 20 minute timeframe with recordings every 2 minutes. The increase in Ieq is used as a measure for the increased CFTR activity, EC50 values can be generated by measuring impact of different concentrations of compound on Ieq on primary cells, for this purpose each transwell is treated with a different compound concentration. […] Raw data were normalized to percentage activity values using the equation: 100×(Sample−Negative control)/(Positive control−Negative Control).

Test [2] concerns the target T1, ΔF508-CFTR. The test is described as follows: CFTR cell surface levels using HRP-tagged ΔF508-CFTR expressing CFBE cells, in the presence of a co-corrector. The following applies: HRP-tagged ΔF508-CFTR CFBE cells, in the presence of 3 μM co-corrector; for EC50: read-out: EC50. Put shortly: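 Chemiluminescent read-out of surface HRP (15 min, dark) after PBS washes. Activity is normalized as 100×(sample−DMSO)/(3 μM co-corrector alone−DMSO).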

[3] abbreviates: AUC = full area under the curve upon forskolin stimulation, read-out: EC50 (nM) (AUC**).
Setting [4] is: AUC = full area under the curve upon forskolin stimulation.
Where [5] appears, read: Ieq = calculations based on the maximum current, read-out: EC50 (nM) (Ieq*).
Where [6] appears, read: Ieq = calculations based on the maximum current.

T1 sequence (P13569 with tags, fused parts or gaps DEL508-508): as above

One may read the EC50 as the midpoint of the concentration-response curve. For the compound `CC(C)c1nn(-c2ccnc(N3CCOCC3)c2)c2nc(C(=O)NS(C)(=O)=O)cc(-c3ccc(N4CCOCC4)cc3)c12` [Compound 136, N-(methanesulfonyl)-4-[4-(morpholin-4-yl)phenyl]-1-[2-(morpholin-4-yl)pyridin-4-yl]-3-(propan-2-yl)-1H-pyrazolo[3,4-b]pyridine-6-carboxamide], the “% Activation” value on ΔF508-CFTR [1] was 262.38%; at ΔF508-CFTR [2], 428.1%. Further, the EC50 at ΔF508-CFTR [1] turned out to be 155 nM; on CFTR ΔF508 (setting [3]), 23.5 nM; at ΔF508-CFTR [2], 72.3 nM. In addition, the “% Activity at 1 μM (AUC**)” value on CFTR ΔF508 (setting [4]) turned out to be 233.2%.

Turning to `COCC1CCN(c2cc(C(=O)NS(C)(=O)=O)nc3c2c(C(C)C)nn3-c2cccc(N(C)C)c2)CC1` [Compound 144, 1-[3-(dimethylamino)phenyl]-N-(methanesulfonyl)-4-[4-(methoxymethyl)piperidin-1-yl]-3-(propan-2-yl)-1H-pyrazolo[3,4-b]pyridine-6-carboxamide], the entries for the “% Activation” value on ΔF508-CFTR [1] and at ΔF508-CFTR [2] were 531.6% and 674.7%, respectively. Also, the concentration for a half-maximal effect (EC50) was 417 nM at ΔF508-CFTR [1], 12 nM on CFTR ΔF508 (setting [5]) and 243 nM at ΔF508-CFTR [2]. At CFTR ΔF508 (setting [6]), the “% Activity at 1 μM (Ieq*)” value is on record as 350%.

`COCCS(=O)(=O)NC(=O)c1cc(N2CCC(OC)CC2)c2c(C3CCC3)nn(-c3ccccc3)c2n1` [Compound 146, 3-cyclobutyl-N-(2-methoxyethanesulfonyl)-4-(4-methoxypiperidin-1-yl)-1-phenyl-1H-pyrazolo[3,4-b]pyridine-6-carboxamide]: the “% Activation” value at ΔF508-CFTR [1] turned out to be 201.23%; on ΔF508-CFTR [2], 357.55%. The results for the EC50 on ΔF508-CFTR [1], on CFTR ΔF508 (setting [5]) and at ΔF508-CFTR [2] were 356 nM, 30 nM and 96.9 nM, respectively. At CFTR ΔF508 (setting [6]), the “% Activity at 1 μM (Ieq*)” value was 310%.

Take `COC1CCN(c2cc(C(=O)NS(C)(=O)=O)nc3c2c(C(C)C)nn3C2CCCCC2)CC1` [Compound 150, 1-cyclohexyl-N-(methanesulfonyl)-4-(4-methoxypiperidin-1-yl)-3-(propan-2-yl)-1H-pyrazolo[3,4-b]pyridine-6-carboxamide]: the “% Activation” value was 220.98% on ΔF508-CFTR [1] and 380.65% at ΔF508-CFTR [2]. The values for the EC50 on ΔF508-CFTR [1], on CFTR ΔF508 (setting [5]) and on ΔF508-CFTR [2] were 576 nM, 100 nM and 318 nM, respectively.

In the case of `CCCOC1CCN(c2cc(C(=O)NS(C)(=O)=O)nc3c2c(C2CCC2)nn3-c2ccccc2)CC1` [Compound 152, 3-cyclobutyl-N-(methanesulfonyl)-1-phenyl-4-(4-propoxypiperidin-1-yl)-1H-pyrazolo[3,4-b]pyridine-6-carboxamide], the “% Activation” value on ΔF508-CFTR [1] is reported as 242.35%; on ΔF508-CFTR [2], 409.9%. Also, the EC50 at ΔF508-CFTR [1] turned out to be 357 nM; on CFTR ΔF508 (setting [3]) it was 16 nM; on ΔF508-CFTR [2], 108 nM. Also, the “% Activity at 1 μM (AUC**)” value on CFTR ΔF508 (setting [4]) worked out at 482.77%.

`COC1CCN(c2cc(C(=O)NS(C)(=O)=O)nc3c2c(C(C)C)nn3-c2cccc(N(C)C)c2)CC1` [Compound 155, 1-[3-(dimethylamino)phenyl]-N-(methanesulfonyl)-4-(4-methoxypiperidin-1-yl)-3-(propan-2-yl)-1H-pyrazolo[3,4-b]pyridine-6-carboxamide]: the “% Activation” value came out at 439.5% at ΔF508-CFTR [1] and 555.45% at ΔF508-CFTR [2]. Besides, the results for the EC50 at ΔF508-CFTR [1], at CFTR ΔF508 (setting [3]) and on ΔF508-CFTR [2] were 454 nM, 4 nM and 230 nM, respectively. Besides, the “% Activity at 1 μM (AUC**)” value at CFTR ΔF508 (setting [4]) was 200%.

With `CC(C)c1nn(-c2ccnc(N3CCCC3)c2)c2nc(C(=O)NS(C)(=O)=O)cc(-c3ccc(N4CCC(C#N)CC4)nc3)c12` [Compound 158, 4-[6-(4-cyanopiperidin-1-yl)pyridin-3-yl]-N-(methanesulfonyl)-3-(propan-2-yl)-1-[2-(pyrrolidin-1-yl)pyridin-4-yl]-1H-pyrazolo[3,4-b]pyridine-6-carboxamide], on ΔF508-CFTR [1], the “% Activation” value came out at 359.1% and the concentration for a half-maximal effect (EC50) stood at 622 nM. At CFTR ΔF508 (setting [4]), the “% Activity at 1 μM (AUC**)” value worked out at 370.9%. On ΔF508-CFTR [2], the “% Activation” value is listed as 512.45% and the EC50 came out at 267 nM.

Take `CC(C)c1nn(-c2cccc(N(C)C)c2)c2nc(C(=O)NS(C)(=O)=O)cc(N3CCC(C#N)CC3)c12` [Compound 160, 4-(4-cyanopiperidin-1-yl)-1-[3-(dimethylamino)phenyl]-N-(methanesulfonyl)-3-(propan-2-yl)-1H-pyrazolo[3,4-b]pyridine-6-carboxamide]: the “% Activation” value was 285.57% on ΔF508-CFTR [1] and 490.4% on ΔF508-CFTR [2]. Also, the EC50 at ΔF508-CFTR [1] is 309 nM; at CFTR ΔF508 (setting [3]), 160 nM; on ΔF508-CFTR [2], 202 nM. For the same compound, the “% Activity at 1 μM (AUC**)” value on CFTR ΔF508 (setting [4]) is reported as 190%.

On to `COC1CCN(c2cc(C(=O)NS(C)(=O)=O)nc3c2c(C(C)C)nn3-c2ccc(F)cc2)CC1` [Compound 167, 1-(4-fluorophenyl)-N-(methanesulfonyl)-4-(4-methoxypiperidin-1-yl)-3-(propan-2-yl)-1H-pyrazolo[3,4-b]pyridine-6-carboxamide], for which the “% Activation” value on ΔF508-CFTR [1] is 260.6%; on ΔF508-CFTR [2], 429.4%. Further, the EC50 at ΔF508-CFTR [1] came to 313 nM; at CFTR ΔF508 (setting [3]), 32 nM; at ΔF508-CFTR [2], 81.8 nM. Besides, the “% Activity at 1 μM (AUC**)” value on CFTR ΔF508 (setting [4]) was determined as 260%.

As for `COCC1CCN(c2cc(C(=O)NS(C)(=O)=O)nc3c2c(C(C)C)nn3-c2ccc(F)cc2)CC1` [Compound 168, 1-(4-fluorophenyl)-N-(methanesulfonyl)-4-[4-(methoxymethyl)piperidin-1-yl]-3-(propan-2-yl)-1H-pyrazolo[3,4-b]pyridine-6-carboxamide], the “% Activation” value is listed as 399.2% at ΔF508-CFTR [1] and 581.55% on ΔF508-CFTR [2]. Also, the EC50 on ΔF508-CFTR [1] is 338 nM; on CFTR ΔF508 (setting [3]), 38.2 nM; on ΔF508-CFTR [2] it was 410 nM. In addition, the “% Activity at 1 μM (AUC**)” value on CFTR ΔF508 (setting [4]) is 282.45%.

Turning to `CC(C)c1nn(-c2ccnc(N3CCCC3)c2)c2nc(C(=O)NS(C)(=O)=O)cc(-c3ccc(N4CCC(C#N)CC4)cc3)c12` [Compound 169, 4-[4-(4-cyanopiperidin-1-yl)phenyl]-N-(methanesulfonyl)-3-(propan-2-yl)-1-[2-(pyrrolidin-1-yl)pyridin-4-yl]-1H-pyrazolo[3,4-b]pyridine-6-carboxamide], the entries for the “% Activation” value on ΔF508-CFTR [1] and on ΔF508-CFTR [2] were 344.25% and 519.3%, respectively. Also, the EC50 turned out to be 426 nM at ΔF508-CFTR [1], 2.1 nM at CFTR ΔF508 (setting [3]) and 284 nM on ΔF508-CFTR [2]. At CFTR ΔF508 (setting [4]), the “% Activity at 1 μM (AUC**)” value worked out at 210%.

As to `CC(C)c1nn(-c2ccc(F)cc2)c2nc(C(=O)NS(C)(=O)=O)cc(N3CCC4(CCO4)CC3)c12` [Compound 177, 1-(4-fluorophenyl)-N-(methanesulfonyl)-4-(1-oxa-7-azaspiro[3.5]nonan-7-yl)-3-(propan-2-yl)-1H-pyrazolo[3,4-b]pyridine-6-carboxamide], the “% Activation” value on ΔF508-CFTR [1] was 99.405%; at ΔF508-CFTR [2], 263.9%. The EC50 at ΔF508-CFTR [1] was 830 nM; on CFTR ΔF508 (setting [3]) it was > 100 nM; at ΔF508-CFTR [2] it was 385 nM. In addition, the “% Activity at 1 μM (AUC**)” value on CFTR ΔF508 (setting [4]) stood at 419.90%.

As to `COCC1CCN(c2cc(C(=O)NS(C)(=O)=O)nc3c2c(C2CCC2)nn3-c2ccccc2)CC1` [Compound 185, 3-cyclobutyl-N-(methanesulfonyl)-4-[4-(methoxymethyl)piperidin-1-yl]-1-phenyl-1H-pyrazolo[3,4-b]pyridine-6-carboxamide], the figures for the “% Activation” value at ΔF508-CFTR [1] and on ΔF508-CFTR [2] were 331.6% and 546.7%, respectively. Further, the figures for the EC50 at ΔF508-CFTR [1], on CFTR ΔF508 (setting [3]) and at ΔF508-CFTR [2] were 241 nM, 45.4 nM and 145 nM, respectively.
